Test results published in patent US9963445B2, “Chemical compounds” (SYNGENTA PARTICIPATIONS AG, priority 2013, dated 2018).

What follows are molecules tested on Abutilon theophrasti (assay: Pre-emergence herbicidal activity, glasshouse pot test). Settings: pre-emergence spray, rate 1000 g/ha, evaluated after 13 days, scale 0-5.
Format: in vivo
In short: (§1)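 Sown pots sprayed pre-emergence (day 1), acetone/water + 0.5% Tween 20 vehicle. Damage rated 0–5 at 13 days.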

In order of rising “ABUTH damage score, application pre-emergence” value:
1. CC1=C(Cl)C(=O)N(c2cc(N(C)C)ncn2)C1O (stereo not drawn) [CF20]  0
2. CC1=C(Cl)C(=O)N(c2cc(C(C)C#N)ncn2)C1O (stereo not drawn) [CF18]  1
3. COc1cc(N2C(=O)C(Cl)=C(C)C2O)ncn1 (stereo not drawn) [CF21]  1
4. CC1=C(Cl)C(=O)N(c2cc(C3(C#N)CC3)ncn2)C1O (stereo not drawn) [CF17]  2
5. CC1=C(Br)C(=O)N(c2cc(C(F)(F)F)ncn2)C1O (stereo not drawn) [CG1]  4
6. CC1=C(Cl)C(=O)N(c2cc(C(C)C)ncn2)C1O (stereo not drawn) [CF19]  5
7. CCCC1=C(Cl)C(=O)N(c2cc(C(C)(C)C#N)ncn2)C1O (stereo not drawn) [CF22]  5
8. CCC1=C(Br)C(=O)N(c2cc(C(C)(C)C#N)ncn2)C1O (stereo not drawn) [CG2]  5

Each molecule was assayed on Setaria faberi in the same assay as above. Settings: pre-emergence spray, rate 1000 g/ha, evaluated after 13 days, scale 0-5.
Format: in vivo
In short: as §1

In order of falling “SETFA damage score, application pre-emergence” value:
1. CC1=C(Cl)C(=O)N(c2cc(C3(C#N)CC3)ncn2)C1O (stereo not drawn) [CF17]  5
2. CC1=C(Cl)C(=O)N(c2cc(C(C)C)ncn2)C1O (stereo not drawn) [CF19]  4
3. COc1cc(N2C(=O)C(Cl)=C(C)C2O)ncn1 (stereo not drawn) [CF21]  4
4. CCCC1=C(Cl)C(=O)N(c2cc(C(C)(C)C#N)ncn2)C1O (stereo not drawn) [CF22]  4
5. CC1=C(Br)C(=O)N(c2cc(C(F)(F)F)ncn2)C1O (stereo not drawn) [CG1]  4
6. CC1=C(Cl)C(=O)N(c2cc(C(C)C#N)ncn2)C1O (stereo not drawn) [CF18]  3
7. CCC1=C(Br)C(=O)N(c2cc(C(C)(C)C#N)ncn2)C1O (stereo not drawn) [CG2]  3
8. CC1=C(Cl)C(=O)N(c2cc(N(C)C)ncn2)C1O (stereo not drawn) [CF20]  1

Each molecule was assayed on Echinochloa crus-galli in the same assay as above. Settings: pre-emergence spray, rate 1000 g/ha, evaluated after 13 days, scale 0-5.
Format: in vivo
In short: as §1

In order of rising “ECHCG damage score, application pre-emergence” value:
1. CC1=C(Cl)C(=O)N(c2cc(C(C)C#N)ncn2)C1O (stereo not drawn) [CF18]  1
2. CC1=C(Cl)C(=O)N(c2cc(C3(C#N)CC3)ncn2)C1O (stereo not drawn) [CF17]  3
3. CC1=C(Cl)C(=O)N(c2cc(N(C)C)ncn2)C1O (stereo not drawn) [CF20]  3
4. CC1=C(Cl)C(=O)N(c2cc(C(C)C)ncn2)C1O (stereo not drawn) [CF19]  4
5. CCC1=C(Br)C(=O)N(c2cc(C(C)(C)C#N)ncn2)C1O (stereo not drawn) [CG2]  4
6. COc1cc(N2C(=O)C(Cl)=C(C)C2O)ncn1 (stereo not drawn) [CF21]  5
7. CCCC1=C(Cl)C(=O)N(c2cc(C(C)(C)C#N)ncn2)C1O (stereo not drawn) [CF22]  5
8. CC1=C(Br)C(=O)N(c2cc(C(F)(F)F)ncn2)C1O (stereo not drawn) [CG1]  5

These molecules were tested on zea mays in the same assay as above. Settings: pre-emergence spray, rate 1000 g/ha, evaluated after 13 days, scale 0-5.
Format: in vivo
In short: as §1

In order of falling “ZEAMX damage score, application pre-emergence” value:
1. CC1=C(Cl)C(=O)N(c2cc(C3(C#N)CC3)ncn2)C1O (stereo not drawn) [CF17]  2
2. CC1=C(Cl)C(=O)N(c2cc(C(C)C)ncn2)C1O (stereo not drawn) [CF19]  2
3. CC1=C(Cl)C(=O)N(c2cc(N(C)C)ncn2)C1O (stereo not drawn) [CF20]  2
4. COc1cc(N2C(=O)C(Cl)=C(C)C2O)ncn1 (stereo not drawn) [CF21]  2
5. CCCC1=C(Cl)C(=O)N(c2cc(C(C)(C)C#N)ncn2)C1O (stereo not drawn) [CF22]  2
6. CCC1=C(Br)C(=O)N(c2cc(C(C)(C)C#N)ncn2)C1O (stereo not drawn) [CG2]  2
7. CC1=C(Cl)C(=O)N(c2cc(C(C)C#N)ncn2)C1O (stereo not drawn) [CF18]  0
8. CC1=C(Br)C(=O)N(c2cc(C(F)(F)F)ncn2)C1O (stereo not drawn) [CG1]  0

These molecules were tested on Alopecurus myosuroides in the same assay as above. Settings: pre-emergence spray, rate 1000 g/ha, evaluated after 13 days, scale 0-5.
Format: in vivo
In short: as §1

In order of rising “ALOMY damage score, application pre-emergence” value:
1. CC1=C(Cl)C(=O)N(c2cc(N(C)C)ncn2)C1O (stereo not drawn) [CF20]  1
2. CC1=C(Cl)C(=O)N(c2cc(C(C)C)ncn2)C1O (stereo not drawn) [CF19]  2
3. COc1cc(N2C(=O)C(Cl)=C(C)C2O)ncn1 (stereo not drawn) [CF21]  2
4. CCCC1=C(Cl)C(=O)N(c2cc(C(C)(C)C#N)ncn2)C1O (stereo not drawn) [CF22]  2
5. CCC1=C(Br)C(=O)N(c2cc(C(C)(C)C#N)ncn2)C1O (stereo not drawn) [CG2]  2
6. CC1=C(Cl)C(=O)N(c2cc(C3(C#N)CC3)ncn2)C1O (stereo not drawn) [CF17]  3
7. CC1=C(Br)C(=O)N(c2cc(C(F)(F)F)ncn2)C1O (stereo not drawn) [CG1]  3
8. CC1=C(Cl)C(=O)N(c2cc(C(C)C#N)ncn2)C1O (stereo not drawn) [CF18]  4

What follows are molecules tested on Amaranthus retroflexus in the same assay as above. Settings: pre-emergence spray, rate 1000 g/ha, evaluated after 13 days, scale 0-5.
Format: in vivo
In short: as §1

In order of rising “AMARE damage score, application pre-emergence” value:
1. CC1=C(Cl)C(=O)N(c2cc(C(C)C#N)ncn2)C1O (stereo not drawn) [CF18]  1
2. CC1=C(Br)C(=O)N(c2cc(C(F)(F)F)ncn2)C1O (stereo not drawn) [CG1]  1
3. CC1=C(Cl)C(=O)N(c2cc(N(C)C)ncn2)C1O (stereo not drawn) [CF20]  3
4. COc1cc(N2C(=O)C(Cl)=C(C)C2O)ncn1 (stereo not drawn) [CF21]  4
5. CCC1=C(Br)C(=O)N(c2cc(C(C)(C)C#N)ncn2)C1O (stereo not drawn) [CG2]  4
6. CC1=C(Cl)C(=O)N(c2cc(C3(C#N)CC3)ncn2)C1O (stereo not drawn) [CF17]  5
7. CC1=C(Cl)C(=O)N(c2cc(C(C)C)ncn2)C1O (stereo not drawn) [CF19]  5
8. CCCC1=C(Cl)C(=O)N(c2cc(C(C)(C)C#N)ncn2)C1O (stereo not drawn) [CF22]  5

The molecules below were run on Abutilon theophrasti (assay: Post-emergence herbicidal activity, glasshouse pot test). Settings: Application post-emergence, rate 1000 g/ha, evaluated after 13 days.
Format: in vivo
Set-up: key: 0 = no damage to plant, 5 = total damage to plant
In short: (§2)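 Pot-grown seedlings, sown in standard soil, were sprayed 8 days after sowing and kept in a controlled glasshouse (24/16 °C, 14 h photoperiod, 65% humidity). Injury was assessed visually 13 days later on a scale where 5 means total damage.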

In order of rising “ABUTH herbicidal damage score” value:
1. COc1cc(N2C(=O)C(Cl)=C(C)C2O)ncn1 (stereo not drawn) [CF21]  3
2. CC1=C(Cl)C(=O)N(c2cc(C(C)C#N)ncn2)C1O (stereo not drawn) [CF18]  4
3. CC1=C(Cl)C(=O)N(c2cc(N(C)C)ncn2)C1O (stereo not drawn) [CF20]  4
4. CC1=C(Br)C(=O)N(c2cc(C(F)(F)F)ncn2)C1O (stereo not drawn) [CG1]  4
5. CC1=C(Cl)C(=O)N(c2cc(C3(C#N)CC3)ncn2)C1O (stereo not drawn) [CF17]  5
6. CC1=C(Cl)C(=O)N(c2cc(C(C)C)ncn2)C1O (stereo not drawn) [CF19]  5
7. CCCC1=C(Cl)C(=O)N(c2cc(C(C)(C)C#N)ncn2)C1O (stereo not drawn) [CF22]  5
8. CCC1=C(Br)C(=O)N(c2cc(C(C)(C)C#N)ncn2)C1O (stereo not drawn) [CG2]  5

Each molecule was assayed on Setaria faberi in the same assay as above. Settings: Application post-emergence, rate 1000 g/ha, evaluated after 13 days.
Format: in vivo
Set-up: key: 0 = no damage to plant, 5 = total damage to plant
In short: as §2

In order of rising “SETFA herbicidal damage score” value:
1. CC1=C(Cl)C(=O)N(c2cc(C(C)C#N)ncn2)C1O (stereo not drawn) [CF18]  3
2. CC1=C(Cl)C(=O)N(c2cc(C3(C#N)CC3)ncn2)C1O (stereo not drawn) [CF17]  5
3. CC1=C(Cl)C(=O)N(c2cc(C(C)C)ncn2)C1O (stereo not drawn) [CF19]  5
4. CC1=C(Cl)C(=O)N(c2cc(N(C)C)ncn2)C1O (stereo not drawn) [CF20]  5
5. COc1cc(N2C(=O)C(Cl)=C(C)C2O)ncn1 (stereo not drawn) [CF21]  5
6. CCCC1=C(Cl)C(=O)N(c2cc(C(C)(C)C#N)ncn2)C1O (stereo not drawn) [CF22]  5
7. CC1=C(Br)C(=O)N(c2cc(C(F)(F)F)ncn2)C1O (stereo not drawn) [CG1]  5
8. CCC1=C(Br)C(=O)N(c2cc(C(C)(C)C#N)ncn2)C1O (stereo not drawn) [CG2]  5

Each molecule was assayed on Echinochloa crus-galli in the same assay as above. Settings: Application post-emergence, rate 1000 g/ha, evaluated after 13 days.
Format: in vivo
Set-up: key: 0 = no damage to plant, 5 = total damage to plant
In short: as §2

In order of falling “ECHCG herbicidal damage score” value:
1. CC1=C(Cl)C(=O)N(c2cc(C3(C#N)CC3)ncn2)C1O (stereo not drawn) [CF17]  5
2. CC1=C(Cl)C(=O)N(c2cc(C(C)C)ncn2)C1O (stereo not drawn) [CF19]  5
3. COc1cc(N2C(=O)C(Cl)=C(C)C2O)ncn1 (stereo not drawn) [CF21]  5
4. CCCC1=C(Cl)C(=O)N(c2cc(C(C)(C)C#N)ncn2)C1O (stereo not drawn) [CF22]  5
5. CC1=C(Br)C(=O)N(c2cc(C(F)(F)F)ncn2)C1O (stereo not drawn) [CG1]  5
6. CCC1=C(Br)C(=O)N(c2cc(C(C)(C)C#N)ncn2)C1O (stereo not drawn) [CG2]  5
7. CC1=C(Cl)C(=O)N(c2cc(N(C)C)ncn2)C1O (stereo not drawn) [CF20]  4
8. CC1=C(Cl)C(=O)N(c2cc(C(C)C#N)ncn2)C1O (stereo not drawn) [CF18]  2

Each molecule was assayed on zea mays in the same assay as above. Settings: Application post-emergence, rate 1000 g/ha, evaluated after 13 days.
Format: in vivo
Set-up: key: 0 = no damage to plant, 5 = total damage to plant
In short: as §2

In order of rising “ZEAMX herbicidal damage score” value:
1. CC1=C(Cl)C(=O)N(c2cc(N(C)C)ncn2)C1O (stereo not drawn) [CF20]  0
2. CC1=C(Cl)C(=O)N(c2cc(C(C)C#N)ncn2)C1O (stereo not drawn) [CF18]  1
3. CC1=C(Cl)C(=O)N(c2cc(C3(C#N)CC3)ncn2)C1O (stereo not drawn) [CF17]  3
4. CC1=C(Cl)C(=O)N(c2cc(C(C)C)ncn2)C1O (stereo not drawn) [CF19]  3
5. COc1cc(N2C(=O)C(Cl)=C(C)C2O)ncn1 (stereo not drawn) [CF21]  3
6. CCCC1=C(Cl)C(=O)N(c2cc(C(C)(C)C#N)ncn2)C1O (stereo not drawn) [CF22]  3
7. CC1=C(Br)C(=O)N(c2cc(C(F)(F)F)ncn2)C1O (stereo not drawn) [CG1]  3
8. CCC1=C(Br)C(=O)N(c2cc(C(C)(C)C#N)ncn2)C1O (stereo not drawn) [CG2]  5

These molecules were tested on Alopecurus myosuroides in the same assay as above. Settings: Application post-emergence, rate 1000 g/ha, evaluated after 13 days.
Format: in vivo
Set-up: key: 0 = no damage to plant, 5 = total damage to plant
In short: as §2

In order of falling “ALOMY herbicidal damage score” value:
1. CCCC1=C(Cl)C(=O)N(c2cc(C(C)(C)C#N)ncn2)C1O (stereo not drawn) [CF22]  5
2. CC1=C(Br)C(=O)N(c2cc(C(F)(F)F)ncn2)C1O (stereo not drawn) [CG1]  5
3. CCC1=C(Br)C(=O)N(c2cc(C(C)(C)C#N)ncn2)C1O (stereo not drawn) [CG2]  5
4. CC1=C(Cl)C(=O)N(c2cc(C3(C#N)CC3)ncn2)C1O (stereo not drawn) [CF17]  4
5. CC1=C(Cl)C(=O)N(c2cc(N(C)C)ncn2)C1O (stereo not drawn) [CF20]  4
6. COc1cc(N2C(=O)C(Cl)=C(C)C2O)ncn1 (stereo not drawn) [CF21]  4
7. CC1=C(Cl)C(=O)N(c2cc(C(C)C#N)ncn2)C1O (stereo not drawn) [CF18]  3
8. CC1=C(Cl)C(=O)N(c2cc(C(C)C)ncn2)C1O (stereo not drawn) [CF19]  3

The molecules below were run on Amaranthus retroflexus in the same assay as above. Settings: Application post-emergence, rate 1000 g/ha, evaluated after 13 days.
Format: in vivo
Set-up: key: 0 = no damage to plant, 5 = total damage to plant
In short: as §2

In order of rising “AMARE herbicidal damage score” value:
1. CC1=C(Cl)C(=O)N(c2cc(C(C)C#N)ncn2)C1O (stereo not drawn) [CF18]  2
2. CC1=C(Br)C(=O)N(c2cc(C(F)(F)F)ncn2)C1O (stereo not drawn) [CG1]  2
3. COc1cc(N2C(=O)C(Cl)=C(C)C2O)ncn1 (stereo not drawn) [CF21]  3
4. CC1=C(Cl)C(=O)N(c2cc(C3(C#N)CC3)ncn2)C1O (stereo not drawn) [CF17]  5
5. CC1=C(Cl)C(=O)N(c2cc(C(C)C)ncn2)C1O (stereo not drawn) [CF19]  5
6. CC1=C(Cl)C(=O)N(c2cc(N(C)C)ncn2)C1O (stereo not drawn) [CF20]  5
7. CCCC1=C(Cl)C(=O)N(c2cc(C(C)(C)C#N)ncn2)C1O (stereo not drawn) [CF22]  5
8. CCC1=C(Br)C(=O)N(c2cc(C(C)(C)C#N)ncn2)C1O (stereo not drawn) [CG2]  5
